# Target: T1, GPR40 of human origin (Homo sapiens, UniProt O14842)
# T1 construct: expressed in transfected cells
# Test: Agonist action on GPR40 of human origin (intracellular Ca2+ change)
# Type: cell-based
# Settings: CHO cell strain stably expressing GPR40 of human origin; change in Ca2+ concentration, fluorescent calcium indicator
# Outline: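 CHO cells stably expressing human GPR40, cultured overnight, then loaded 1 h with Calcium 4 dye plus probenecid in HEPES-buffered HBSS. Compound added in 20 mM HEPES-HBSS; intracellular Ca2+ change read by fluorescence, EC50 from dose-response of fluorescence change.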
# T1 sequence (O14842 whole entry): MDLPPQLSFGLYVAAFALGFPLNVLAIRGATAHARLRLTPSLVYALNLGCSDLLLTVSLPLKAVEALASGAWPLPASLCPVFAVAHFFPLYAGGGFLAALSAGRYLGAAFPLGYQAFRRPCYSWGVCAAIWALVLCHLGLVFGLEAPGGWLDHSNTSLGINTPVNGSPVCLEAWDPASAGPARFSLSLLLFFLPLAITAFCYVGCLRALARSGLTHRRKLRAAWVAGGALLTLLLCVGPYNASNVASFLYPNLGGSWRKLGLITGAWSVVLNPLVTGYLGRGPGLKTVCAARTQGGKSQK
row,SMILES,EC50 [nM]
1,"[O-][s+]1nc(O)cc1-c1ccc(O[C@@H]2CCc3c(Oc4ccc(CCO)cc4)cccc32)cc1 (stereo partly drawn) [Example 88, 3-hydroxy-5-(4-(((R)-4-(4-(2-hydroxyethyl)phenoxy)-2,3-dihydro-1H-inden-1-yl)oxy)phenyl)isothiazole 1-oxide]",< 300
2,"CCOCCOc1ccc(Oc2cccc3c2CC[C@H]3Oc2ccc(-c3cc(O)n[s+]3[O-])cc2)cn1 (stereo partly drawn) [Example 98, 5-(4-(((R)-4-((6-(2-ethoxyethoxy)pyridin-3-yl)oxy)-2,3-dihydro-1H-inden-1-yl)oxy)phenyl)-3-hydroxyisothiazole 1-oxide]",< 300
3,"CCOc1ccc(Cl)cc1-c1cccc2c1CC[C@H]2Oc1ccc(-c2cc(O)n[s+]2[O-])cc1 (stereo partly drawn) [Example 58, 5-(4-(((R)-4-(5-chloro-2-ethoxyphenyl)-2,3-dihydro-1H-inden-1-yl)oxy)phenyl)-3-hydroxyisothiazole 1-oxide]",< 300
4,"Cc1nc(OCCC(C)(C)O)ccc1Oc1cccc2c1OCC2Oc1ccc(-c2cc(O)n[s+]2[O-])cc1 (single isomer, unassigned) [Example 153-a, 3-hydroxy-5-(4-((7-((6-(3-hydroxy-3-methylbutoxy)-2-methylpyridin-3-yl)oxy)-2,3-dihydrobenzofuran-3-yl)oxy)phenyl)isothiazole 1-oxide]",< 300
5,"[O-][s+]1nc(O)cc1-c1ccc(O[C@@H]2CCc3c(-c4cccc5ccccc45)cccc32)cc1 (single isomer, unassigned) [Example 35]",< 300
6,"COc1cc(Cl)cc(-c2cccc3c2CC[C@H]3Oc2ccc(-c3cc(O)n[s+]3[O-])cc2)c1 (stereo partly drawn) [Example 14, 5-(4-(((R)-4-(3-chloro-5-methoxyphenyl)-2,3-dihydro-1H-inden-1-yl)oxy)phenyl)-3-hydroxyisothiazole 1-oxide]",< 300
7,"[O-][s+]1nc(O)cc1-c1ccc(OCc2ccc(CN3CCC4(C=Cc5ccccc54)CC3)cc2)cc1 (stereo not drawn) [Example 123, 3-hydroxy-5-(4-((4-(spiro[inden-1,4′-piperidin]-1′-ylmethyl)benzyl)oxy)phenyl)isothiazole 1-oxide]",300 to 3000
8,"[O-][s+]1nc(O)cc1-c1ccc(O[C@@H]2CCc3c(-c4cc(F)ccc4F)cccc32)cc1 (stereo partly drawn) [Example 46, 5-(4-(((R)-4-(2,5-difluorophenyl)-2,3-dihydro-1H-inden-1-yl)oxy)phenyl)-3-hydroxyisothiazole 1-oxide]",< 300
9,"[O-][s+]1nc(O)cc1-c1ccc(O[C@@H]2CCc3c(Oc4cccnc4)cccc32)cc1 (single isomer, unassigned) [Example 85]",< 300
10,"CCOc1ccc(-c2cccc3c2CC[C@H]3Oc2ccc(-c3cc(O)n[s+]3[O-])cc2)cc1 (stereo partly drawn) [Example 7, 5-(4-(((R)-4-(4-ethoxyphenyl)-2,3-dihydro-1H-inden-1-yl)oxy)phenyl)-3-hydroxyisothiazole 1-oxide]",300 to 3000
11,"CCOc1ccc(F)cc1-c1cccc2c1CC[C@H]2Oc1ccc(-c2cc(O)n[s+]2[O-])cc1 (stereo partly drawn) [Example 4, 5-(4-(((1R)-4-(2-ethoxy-5-fluorophenyl)-2,3-dihydro-1H-inden-1-yl)oxy)phenyl)-3-hydroxyisothiazole 1-oxide]",< 300
12,"COc1cncc(Oc2cccc3c2CC[C@H]3Oc2ccc(-c3cc(O)n[s+]3[O-])cc2)c1 (stereo partly drawn) [Example 127, 3-hydroxy-5-(4-(((R)-4-((3-methoxypyridin-5-yl)oxy)-2,3-dihydro-1H-inden-1-yl)oxy)phenyl)isothiazole 1-oxide]",< 300
13,"[O-][s+]1nc(O)cc1-c1ccc(O[C@@H]2CCc3c(-c4cc(F)ccc4OCc4ccccc4)cccc32)cc1 (stereo partly drawn) [Example 62, 5-(4-(((R)-4-(2-benzyloxy-5-fluorophenyl)-2,3-dihydro-1H-inden-1-yl)oxy)phenyl)-3-hydroxyisothiazole 1-oxide]",300 to 3000
14,"[O-][s+]1nc(O)cc1-c1ccc(O[C@@H]2CCc3c(-c4cccc(F)c4F)cccc32)cc1 (stereo partly drawn) [Example 17, 5-(4-(((R)-4-(2,3-difluorophenyl)-2,3-dihydro-1H-inden-1-yl)oxy)phenyl)-3-hydroxyisothiazole 1-oxide]",< 300
15,"CC(C)(C)c1ccc(-c2cccc3c2CC[C@H]3Oc2ccc(-c3cc(O)n[s+]3[O-])cc2)cc1 (stereo partly drawn) [Example 33, 5-(4-(((R)-4-(4-tert-butylphenyl)-2,3-dihydro-1H-inden-1-yl)oxy)phenyl)-3-hydroxyisothiazole 1-oxide]",300 to 3000
16,"Cc1nc(OCCC(C)(C)O)ccc1Oc1cccc2c1OCC2Oc1ccc(-c2cc(O)n[s+]2[O-])cc1 (stereo not drawn) [Example 141, 3-hydroxy-5-(4-((7-((6-(3-hydroxy-3-methylbutoxy)-2-methylpyridin-3-yl)oxy)-2,3-dihydrobenzofuran-3-yl)oxy)phenyl)isothiazole 1-oxide]",< 300
17,"CC(C)Cc1ccc(-c2cccc3c2CC[C@H]3Oc2ccc(-c3cc(O)n[s+]3[O-])cc2)cc1 (stereo partly drawn) [Example 28, 5-(4-(((R)-4-(4-isobutylphenyl)-2,3-dihydro-1H-inden-1-yl)oxy)phenyl)-3-hydroxyisothiazole 1-oxide]",< 300
18,"Cc1cc(OCCC(C)(C)O)cc(C)c1-c1cccc2c1OCC2Oc1ccc(-c2cc(O)n[s+]2[O-])cc1 (single isomer, unassigned) [Example 148-b, 3-hydroxy-5-(4-((7-(4-(3-hydroxy-3-methylbutoxy)-2,6-dimethylphenyl)-2,3-dihydrobenzofuran-3-yl)oxy)phenyl)isothiazole 1-oxide]",300 to 3000
19,"NC(=O)c1ccc(Oc2cccc3c2CC[C@H]3Oc2ccc(-c3cc(O)n[s+]3[O-])cc2)cc1 (stereo partly drawn) [Example 129, 4-(((1R)-1-(4-(3-hydroxy-1-oxidoisothiazol-5-yl)phenoxy)-2,3-dihydro-1H-inden-4-yl)oxy)benzamide]",< 300
20,"CCOc1ccc(-c2cccc3c2CC[C@H]3Oc2ccc(-c3cc(O)n[s+]3[O-])cc2)cc1F (stereo partly drawn) [Example 44, 5-(4-(((R)-4-(4-ethoxy-3-fluorophenyl)-2,3-dihydro-1H-inden-1-yl)oxy)phenyl)-3-hydroxyisothiazole 1-oxide]",300 to 3000
21,"Cc1cc(OCCCS(C)(=O)=O)cc(C)c1-c1cccc2c1OCC2Oc1ccc(-c2cc(O)n[s+]2[O-])cc1 (single isomer, unassigned) [Example 151, 5-(4-((7-(2,6-dimethyl-4-(3-(methylsulfonyl)propoxy)phenyl)-2,3-dihydrobenzofuran-3-yl)oxy)phenyl)-3-hydroxyisothiazole 1-oxide]",< 300
22,"[O-][s+]1nc(O)cc1-c1ccc(O[C@@H]2CCc3c(-c4ccc(OCC5CC5)nc4)cccc32)cc1 (stereo partly drawn) [Example 78, 5-(4-(((R)-4-(6-(cyclopropylmethoxy)pyridin-3-yl)-2,3-dihydro-1H-inden-1-yl)oxy)phenyl)-3-hydroxyisothiazole 1-oxide]",< 300
23,"COc1cc(C)c(Oc2cccc3c2CC[C@H]3Oc2ccc(-c3cc(O)n[s+]3[O-])cc2)cn1 (stereo partly drawn) [Example 105, 3-hydroxy-5-(4-(((R)-4-((6-methoxy-4-methylpyridin-3-yl)oxy)-2,3-dihydro-1H-inden-1-yl)oxy)phenyl)isothiazole 1-oxide]",< 300

# Results, then the compound that gave them:
row,EC50 [nM],SMILES
1,< 300,"COc1ccc(Oc2cccc3c2CC[C@H]3Oc2ccc(-c3cc(O)n[s+]3[O-])cc2)c(C)n1 (stereo partly drawn) [Example 106, 3-hydroxy-5-(4-(((R)-4-((6-methoxy-2-methylpyridin-3-yl)oxy)-2,3-dihydro-1H-inden-1-yl)oxy)phenyl)isothiazole 1-oxide]"
2,< 300,"COc1ccc(Oc2cccc3c2OCC3Oc2ccc(-c3cc(O)n[s+]3[O-])cc2)cn1 (stereo not drawn) [Example 140, 3-hydroxy-5-(4-((7-((6-methoxypyridin-3-yl)oxy)-2,3-dihydrobenzofuran-3-yl)oxy)phenyl)isothiazole 1-oxide]"
3,< 300,"[O-][s+]1nc(O)cc1-c1ccc(O[C@@H]2CCc3c(Oc4ccsc4)cccc32)cc1 (stereo partly drawn) [Example 111, 3-hydroxy-5-(4-(((R)-4-(thiophen-3-yloxy)-2,3-dihydro-1H-inden-1-yl)oxy)phenyl)isothiazole 1-oxide]"
4,< 300,"Cc1ccccc1-c1cccc2c1CC[C@H]2Oc1ccc(-c2cc(O)n[s+]2[O-])cc1 (stereo partly drawn) [Example 27, 5-(4-(((R)-4-(2-methylphenyl)-2,3-dihydro-1H-inden-1-yl)oxy)phenyl)-3-hydroxyisothiazole 1-oxide]"
5,300 to 3000,"N#Cc1ccc(Oc2cccc3c2OCC3Oc2ccc(-c3cc(O)n[s+]3[O-])cc2)cc1 (single isomer, unassigned) [Example 144-b, 4-((3-(4-(3-hydroxy-1-oxidoisothiazol-5-yl)phenoxy)-2,3-dihydrobenzofuran-7-yl)oxy)benzonitrile]"
6,< 300,"[O-][s+]1nc(O)cc1-c1ccc(O[C@@H]2CCc3c(-c4ccccc4Cl)cccc32)cc1 (stereo partly drawn) [Example 10, 5-(4-(((R)-4-(2-chlorophenyl)-2,3-dihydro-1H-inden-1-yl)oxy)phenyl)-3-hydroxyisothiazole 1-oxide]"
7,< 300,"CS(=O)(=O)CCCOc1ccc(Oc2cccc3c2CC[C@H]3Oc2ccc(-c3cc(O)n[s+]3[O-])cc2)cn1 (stereo partly drawn) [Example 116, 3-hydroxy-5-(4-(((R)-4-((6-(3-(methylsulfonyl)propoxy)pyridin-3-yl)oxy)-2,3-dihydro-1H-inden-1-yl)oxy)phenyl)isothiazole 1-oxide]"
8,< 300,"[O-][s+]1nc(O)cc1-c1ccc(OCCc2ccccc2Oc2ccccc2)cc1 (stereo not drawn) [Example 161, 3-hydroxy-5-(4-(2-phenoxyphenethoxy)phenyl)isothiazole 1-oxide]"
9,< 300,"Cc1nc(OCCCS(C)(=O)=O)ccc1Oc1cccc2c1CC[C@H]2Oc1ccc(-c2cc(O)n[s+]2[O-])cc1 (stereo partly drawn) [Example 117, 3-hydroxy-5-(4-(((R)-4-((2-methyl-6-(3-(methylsulfonyl)propoxy)pyridin-3-yl)oxy)-2,3-dihydro-1H-inden-1-yl)oxy)phenyl)isothiazole 1-oxide]"
10,< 300,"Cc1ncccc1Oc1cccc2c1CC[C@H]2Oc1ccc(-c2cc(O)n[s+]2[O-])cc1 (stereo partly drawn) [Example 126, 3-hydroxy-5-(4-(((R)-4-((2-methylpyridin-3-yl)oxy)-2,3-dihydro-1H-inden-1-yl)oxy)phenyl)isothiazole 1-oxide]"
